Measurements from US20200131142A1, “FARNESOID X RECEPTOR AGONISTS AND USES THEREOF” (Metacrine, Inc., priority 2017, published 2020).

target: T1, hFXR (Homo sapiens, UniProt Q96RI1); assay: In Vitro FXR Assay (TK): hFXR/hRXR TK-ECRE-luc reporter in transfected CV-1 cells; format: cell-based; details: 18 hrs incubation, luminescence, compounds with maximum efficacy <25% of the Fexarmine control classified as '+'
T1 construct: expressed in transfected cells; host or cells: CV-1 cells
T1 sequence (Q96RI1 1-486): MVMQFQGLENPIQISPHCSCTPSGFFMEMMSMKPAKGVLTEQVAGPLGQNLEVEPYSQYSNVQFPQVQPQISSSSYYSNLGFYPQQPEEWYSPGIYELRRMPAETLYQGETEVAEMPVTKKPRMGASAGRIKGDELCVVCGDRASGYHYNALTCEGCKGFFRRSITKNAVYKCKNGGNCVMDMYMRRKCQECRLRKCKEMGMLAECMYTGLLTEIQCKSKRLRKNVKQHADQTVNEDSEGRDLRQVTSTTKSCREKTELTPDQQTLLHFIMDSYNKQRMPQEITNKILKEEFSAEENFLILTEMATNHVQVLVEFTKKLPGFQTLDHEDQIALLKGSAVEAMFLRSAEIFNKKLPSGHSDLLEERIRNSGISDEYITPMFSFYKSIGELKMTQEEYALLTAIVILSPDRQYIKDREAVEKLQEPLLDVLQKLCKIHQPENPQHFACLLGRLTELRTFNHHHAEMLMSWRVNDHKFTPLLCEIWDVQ
T1 sequence (P19793 1-462 partner): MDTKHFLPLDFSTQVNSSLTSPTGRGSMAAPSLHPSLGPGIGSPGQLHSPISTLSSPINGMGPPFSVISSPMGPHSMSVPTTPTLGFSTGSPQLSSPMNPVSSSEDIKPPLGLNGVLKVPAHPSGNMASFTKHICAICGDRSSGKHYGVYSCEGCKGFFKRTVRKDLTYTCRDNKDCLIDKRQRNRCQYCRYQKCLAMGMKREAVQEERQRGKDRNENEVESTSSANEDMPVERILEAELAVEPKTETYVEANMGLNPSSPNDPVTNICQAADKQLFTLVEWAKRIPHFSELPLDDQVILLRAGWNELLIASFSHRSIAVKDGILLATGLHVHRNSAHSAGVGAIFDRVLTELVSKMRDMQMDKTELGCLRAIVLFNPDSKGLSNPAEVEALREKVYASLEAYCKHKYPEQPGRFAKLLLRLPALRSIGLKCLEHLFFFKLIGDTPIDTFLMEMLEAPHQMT
Description: Example B-1: In Vitro FXR Assay (TK)
CV-1 cells were seeded at a density of 2,000,000 cells in a T175 flask with DMEM+10% charcoal double-stripped FBS and incubated at 37° C. in 5% CO2 for 18 h (O/N).
After 18 h of incubation, the medium in the T175 flask was changed with fresh DMEM+10% charcoal super-stripped serum. In a polypropylene tube, 2500 μL OptiMEM (Life Technologies, Cat #31985-062) was combined with expression plasmids for hFXR, hRXR, TK-ECRE-luc and pCMX-YFP. The tube was then briefly vortexed and incubated at room temperature for 5 minutes. Transfection reagent (X-tremeGENE HP from Roche, Cat #06 366 236 001) was added to the OptiMEM/plasmid mixture vortexed and incubated at room temperature for 20 minutes. Following incubation, the transfection reagent/DNA mixture complex was added to cells in the T175 flask and the cells were incubated at 37° C. in 5% CO2 for 18 h (O/N).
Compounds were serially diluted in DMSO and added to transfected CV-1 cells. The cells were then incubated for 18 hrs. The next day cells were lysed and examined for luminescence.

SMILES | EC50
CCc1ncc(-c2cccc(N(C[C@H]3CC[C@H](c4ccc(OC)c(C)c4)CC3)C(=O)[C@H]3CC[C@H](O)CC3)c2)s1 [Compound 7.05, trans-N-(3-(2-Ethylthiazol-5-yl)phenyl)-4-hydroxy-N-((trans-4-(4-methoxy-3-methylphenyl)cyclohexyl)methyl) cyclohexanecarboxamide] | ≤ 250 nM
COc1ccc([C@H]2CC[C@H](CN(c3cccc(-c4cnc(S(C)(=O)=O)s4)c3)C(=O)[C@H]3CC[C@H](O)CC3)CC2)cc1C [Compound 7.12, trans-4-Hydroxy-N-((trans-4-(4-methoxy-3-methtylphenyl)cyclohexyl)methyl)-N-(3-(2-(methylsulfonyl)thiazol-5-yl)phenyl)cyclohexanecarboxamide] | 250 to 1000 nM
COc1ccc([C@H]2CC[C@H](CN(c3cccc(-c4cnc(C5CC5)s4)c3)C(=O)[C@H]3CC[C@H](N(C)C)CC3)CC2)cc1C [Compound 13, trans-N-(3-(2-Cyclopropylthiazol-5-yl)phenyl)-4-(dimethylamino)-N-((trans-4-(4-methoxy-3-methylphenyl)cyclohexyl)methyl) cyclohexanecarboxamide] | ≥ 1000 nM
COc1ccc([C@H]2CC[C@H](CN(c3cccc(C#Cc4nc(C)cs4)c3)C(=O)[C@H]3CC[C@H](O)CC3)CC2)cc1C [Compound 8.03, trans-4-Hydroxy-N-((trans-4-(4-methoxy-3-methylphenyl)cyclohexyl)methyl)-N-(3-((4-methylthiazol-2-yl)ethynyl)phenyl)cyclohexanecarboxamide] | ≤ 250 nM
COc1ccc([C@H]2CC[C@H](CN(c3cccc(-c4sc(C)nc4C)c3)C(=O)[C@H]3CC[C@H](O)CC3)CC2)cc1C [Compound 7.04, trans-N-(3-(2,4-Dimethylthiazol-5-yl)phenyl)-4-hydroxy-N-((trans-4-(4-methoxy-3-methylphenyl)cyclohexyl)methyl) cyclohexanecarboxamide] | ≥ 1000 nM
CN(C)c1ccc(C23CCC(CN(c4cccc(-c5cnc(C6CC6)s5)c4)C(=O)[C@H]4CC[C@H](O)CC4)(CC2)CC3)cn1 [Compound 9.13, trans-N-(3-(2-Cyclopropylthiazol-5-yl)phenyl)-N-((4-(6-(dimethylamino)pyridin-3-yl)bicyclo[2.2.2]octan-1-yl)methyl)-4-hydroxycyclohexanecarboxamide] | ≤ 250 nM
COc1ccc([C@H]2CC[C@H](CN(c3cccc(C#Cc4ncc(C)s4)c3)C(=O)[C@H]3CC[C@H](O)CC3)CC2)cc1C [Compound 8.02, trans-4-Hydroxy-N-((trans-4-(4-methoxy-3-methylphenyl)cyclohexyl)methyl)-N-(3-((5-methylthiazol-2-yl)ethynyl)phenyl)cyclohexanecarboxamide] | ≤ 250 nM
COc1ncc(-c2cccc(N(C[C@H]3CC[C@H](c4ccc(OC)c(C)c4)CC3)C(=O)[C@H]3CC[C@H](OC)CC3)c2)s1 [Compound 9.33, trans-4-Methoxy-N-((trans-4-(4-methoxy-3-methylphenyl)cyclohexyl)methyl)-N-(3-(2-methoxythiazol-5-yl)phenyl)cyclohexanecarboxamide] | ≤ 250 nM
COc1ccc([C@H]2CC[C@H](CN(c3cccc(-c4cnc(C(C)C)s4)c3)C(=O)[C@H]3CC[C@H](O)CC3)CC2)cc1C [Compound 7.06] | ≤ 250 nM
COc1ccc([C@H]2CC[C@H](CN(c3cccc(-c4cnc(C(C)C)s4)c3)C(=O)[C@H]3CC[C@H](O)CC3)CC2)nc1C [Compound 9.27, trans-4-Hydroxy-N-(3-(2-isopropylthiazol-5-yl)phenyl)-N-((trans-4-(5-methoxy-6-methylpyridin-2-yl)cyclohexyl)methyl)cyclohexanecarboxamide] | ≤ 250 nM
COc1ccc([C@H]2CC[C@H](CN(c3cccc(-c4cnc(C)s4)c3)C(=O)[C@H]3CC[C@H](O)CC3)CC2)cc1C [Compound 6.03, trans-4-Hydroxy-N-((trans-4-(4-methoxy-3-methylphenyl)cyclohexyl)methyl)-N-(3-(2-methylthiazol-5-yl)phenyl)cyclohexanecarboxamide] | ≤ 250 nM
COc1ncc(-c2cccc(N(C[C@H]3CC[C@H](c4ccc(OC)c(C)c4)CC3)C(=O)C3CCC(F)(F)CC3)c2)s1 [Compound 9.32, 4,4-Difluoro-N-((trans-4-(4-methoxy-3-methylphenyl)cyclohexyl)methyl)-N-(3-(2-methoxythiazol-5-yl)phenyl)cyclohexanecarboxamide] | ≤ 250 nM
COc1ncc(-c2cccc(N(C[C@H]3CC[C@H](c4ccc(OC)c(C)c4)CC3)C(=O)[C@H]3CC[C@H](C)CC3)c2)s1 [Compound 9.31, trans-N-((trans-4-(4-Methoxy-3-methylphenyl)cyclohexyl)methyl)-N-(3-(2-methoxythiazol-5-yl)phenyl)-4-methylcyclohexanecarboxamide] | ≤ 250 nM
COc1ccc([C@H]2CC[C@H](CN(c3cc(-c4cnc(C5CC5)s4)ccn3)C(=O)[C@H]3CC[C@H](O)CC3)CC2)nc1C [Compound 9.20, trans-N-(4-(2-Cyclopropylthiazol-5-yl)pyridin-2-yl)-4-hydroxy-N-((trans-4-(5-methoxy-6-methylpyridin-2-yl)cyclohexyl)methyl)cyclohexanecarboxamide] | ≤ 250 nM
COc1ccc([C@H]2CC[C@H](CN(c3cccc(-c4nc(C)cs4)c3)C(=O)[C@H]3CC[C@H](O)CC3)CC2)cc1C [Compound 7.01, trans-4-Hydroxy-N-((trans-4-(4-methoxy-3-methylphenyl)cyclohexyl)methyl)-N-(3-(4-methylthiazol-2-yl)phenyl)cyclohexanecarboxamide] | ≥ 1000 nM
COc1ncc(-c2cccc(N(C[C@H]3CC[C@@H](c4ccc(OC)c(C)c4)CC3)C(=O)[C@H]3CC[C@H](O)CC3)c2)s1 [Compound 2, trans-4-Hydroxy-N-((cis-4-(4-methoxy-3-methylphenyl)cyclohexyl)methyl)-N-(3-(2-methoxythiazol-5-yl)phenyl)cyclohexanecarboxamide] | ≥ 1000 nM
COc1ccc([C@H]2CC[C@H](CN(c3cccc(COc4nccs4)c3)C(=O)[C@H]3CC[C@H](O)CC3)CC2)cc1C [Compound 17, trans-4-Hydroxy-N-((trans-4-(4-methoxy-3-methylphenyl)cyclohexyl)methyl)-N-(3-((thiazol-2-yloxy)methyl)phenyl)cyclohexanecarboxamide] | ≤ 250 nM
COc1ccc([C@H]2CC[C@H](CN(c3cccc(-c4cnc(N(C)C)s4)c3)C(=O)[C@H]3CC[C@H](O)CC3)CC2)cc1C [Compound 7.13, trans-N-(3-(2-(Dimethylamino)thiazol-5-yl)phenyl)-4-hydroxy-N-((trans-4-(4-methoxy-3-methylphenyl)cyclohexyl)methyl) cyclohexanecarboxamide] | ≤ 250 nM
COc1ccc([C@H]2CC[C@H](CN(c3cccc(NCc4nccs4)c3)C(=O)[C@H]3CC[C@H](O)CC3)CC2)cc1C [Compound 15, trans-4-Hydroxy-N-((trans-4-(4-methoxy-3-methylphenyl)cyclohexyl)methyl)-N-(3-((thiazol-2-ylmethyl)amino)phenyl)cyclohexanecarboxamide] | 250 to 1000 nM
COc1ccc([C@H]2CC[C@H](CN(c3cccc(-c4cnc(C(F)(F)F)s4)c3)C(=O)[C@H]3CC[C@H](O)CC3)CC2)cc1C [Compound 7.23, trans-4-Hydroxy-N-((trans-4-(4-methoxy-3-methylphenyl)cyclohexyl)methyl)-N-(3-(2-(trifluoromethyl)thiazol-5-yl)phenyl)cyclohexanecarboxamide] | ≤ 250 nM
Cc1cc([C@H]2CC[C@H](CN(c3cccc(-c4cnc(C5CC5)s4)c3)C(=O)[C@H]3CC[C@H](O)CC3)CC2)ccc1N(C)S(C)(=O)=O [Compound 9.15, trans-N-(3-(2-Cyclopropylthiazol-5-yl)phenyl)-4-hydroxy-N-((trans-4-(3-methyl-4-(N-methylmethylsulfonamido)phenyl)cyclohexyl)methyl)cyclohexanecarboxamide] | 250 to 1000 nM
